Two compounds from US20260167671A1, “IMMUNOMODULATORS” (Bristol-Myers Squibb Company, priority 2021, published 2026) can be followed below.

The test deals with T1, human PD-L1 (293T-hPD-L1 cells; binding of PE-labeled PD-1-Ig) (Homo sapiens, UniProt Q9NZQ7).
T1 construct: expressed in transfected cells; host or cells: 293T (human embryonic kidney) stably over-expressing human PD-L1
The test is described as follows: 293T-hPD-L1 Cell Binding High-Content Screening Assay (CBA). As for the experimental part:
293T-hPD-L1 Cell Binding High-Content Screening Assay (CBA).
Phycoerythrin (PE) was covalently linked to the Ig epitope tag of human PD-1-Ig and fluorescently-labeled PD-1-Ig was used for binding studies with a human embryonic kidney cell line (293T) stably over-expressing human PD-L1 (293T-hPD-L1). Briefly, 2×10^3 293T-hPD-L1 cells were seeded into 384 well plates in 20 μl of DMEM supplemented with 10% fetal calf serum and cultured overnight. 125 nl of compound was added to cells followed by 5 μl of PE-labeled PD-1-Ig (0.5 nM final), diluted in DMEM supplemented with 10% fetal calf serum, followed by incubation at 37° C. for 1 h. Cells were washed 3× in 100 μl dPBS followed by fixation with 30 μl of 4% paraformaldehyde in dPBS containing 10 μg/ml Hoechst 33342 for 30 min at room temperature. Cells were washed 3× in 100 μl of dPBS followed by final addition of 15 μl of dPBS. Data was collected and processed using a Cell Insight NXT High Content Imager and associated software.
Table 1 lists the IC50 values for representative examples of this disclosure measured in the 293T-hPD-L1 Cell Binding High-Content Screening Assay.

Like-named read-outs stand apart in the source and are kept apart here.

T1 sequence (Q9NZQ7 19-290): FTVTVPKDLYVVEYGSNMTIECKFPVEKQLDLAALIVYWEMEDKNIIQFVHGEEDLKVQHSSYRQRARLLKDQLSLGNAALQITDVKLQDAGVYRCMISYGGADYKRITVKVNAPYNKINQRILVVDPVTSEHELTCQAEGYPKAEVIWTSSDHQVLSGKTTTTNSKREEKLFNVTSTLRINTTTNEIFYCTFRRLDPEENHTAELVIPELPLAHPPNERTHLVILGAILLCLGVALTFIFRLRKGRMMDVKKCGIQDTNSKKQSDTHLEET

The compound `CCCC[C@H]1C(=O)N(C)[C@@H](CCCC)C(=O)N[C@@H](CC(C)C)C(=O)N[C@H](C(=O)NCC(=O)N[C@@H](Cc2cn(CCOCCOCCOCCOCCOCCOCCOCCOCCOCCOCCOCCNC(=O)CC[C@H](NC(=O)CCCCCCCCCCCOc3ccc(C(=O)O)cc3)C(=O)O)nn2)C(=O)O)CSCC(=O)N[C@@H](Cc2ccc(O)cc2)C(=O)N(C)[C@@H](C)C(=O)N[C@@H](CC(N)=O)C(=O)N2CCC[C@H]2C(=O)N[C@@H](CN)C(=O)N[C@@H](CC(C)C)C(=O)N2C[C@H](O)C[C@H]2C(=O)N[C@@H](Cc2c[nH]c3ccccc23)C(=O)N[C@@H](CCN)C(=O)N[C@@H](Cc2cn(CC(=O)O)c3ccccc23)C(=O)N1C` [Example 1003] gave an IC50 of 3.6 nM.

For the compound `CCCC[C@H]1C(=O)N(C)[C@@H](CCCC)C(=O)N[C@@H](CC(C)C)C(=O)N[C@H](C(=O)NCC(=O)N[C@@H](Cc2cn(CCOCCOCCOCCOCCOCCOCCOCCOCCOCCOCCOCCNC(=O)CC[C@H](NC(=O)CCCCCCCCCOc3ccc(C(=O)O)cc3)C(=O)O)nn2)C(=O)O)CSCC(=O)N[C@@H](Cc2ccc(O)cc2)C(=O)N(C)[C@@H](C)C(=O)N[C@@H](CC(N)=O)C(=O)N2CCC[C@H]2C(=O)N[C@@H](CN)C(=O)N[C@@H](CC(C)C)C(=O)N2C[C@H](O)C[C@H]2C(=O)N[C@@H](Cc2c[nH]c3ccccc23)C(=O)N[C@@H](CCN)C(=O)N[C@@H](Cc2cn(CC(=O)O)c3ccccc23)C(=O)N1C` [Example 1001], the half-inhibitory concentration (IC50) (293T cells stably over-expressing human PD-L1, PE-labeled human PD-1-Ig 0.5 nM final, 37° C. for 1 h, read-out: 293T-hPD-L1_PD-1 IC50) was 3.3 nM.

As usually defined, the IC50 is the concentration needed to halve the response being measured.
